Values joined by “and” are separate entries in the source; they are usually repeats but may differ in a detail not shown here. Equal entries are not always repeated. Where two headings read alike, the source gives them in different places.
Assay: Brain-to-plasma ratio of Compound C after oral gavage or intranasal administration (Example 5)
Type: in vivo, Sprague-Dawley rats
Conditions: for concentration at 10 min / concentration at 30 min / concentration at 60 min / Kp at […] / Kp at 0.5 h / Kp at 1 h: Sprague-Dawley
Method: Three treatment groups of nine rats each were used (see Study Design, Table 9). […] The animals were housed up to three per cage and identified by cage labels. A single room was used for this study. […] Food was withheld from the animals for a minimum of 12 hours before the study and during the study, and was returned at 4 hours post-dose. Water was supplied ad libitum during the study.
All dosing solutions were prepared in isotonic PBS (phosphate buffered saline) buffer at pH 7.4. […] For intranasal dosing, the animals were anesthetized with CO2 prior to dosing, and the solution was administered in a 25 μL droplet from a pipette.
For each treatment group, brain and plasma samples were collected at 10, 30 and 60 minutes post-dose. Blood samples were placed in heparinized tubles and spun at 13,000 rpm for 5 minutes. The plasma was placed in polyethylene tubes and frozen (−60 to −80° C.). Brain samples were also placed in chilled tubes and frozen (−60 to −80° C.). Samples remained chilled during subsequent processing.
Brain samples were thawed and weighed. […] After homogenation, the volume of each sample was recorded and the samples were frozen at −80° C. until analysis.
Plastic tubes were used for all steps. Standards were prepared at concentrations of 1000, 500, 250, 100, 50, 10, 5, and 1 ng/mL by serial dilution. Quality control samples were also prepared at 500, 100, and 5 ng/mL. […] Brain standards and quality control samples were treated identically to the test compound samples.
(§1) Brain samples (200 μL) were loaded onto a 96 well plate and then transferred to 400 μL of acetonitrile containing internal standard (100 ng/mL Pindolol) in a Sirocco Protein Precipitation Plate (Waters Corporation). The resulting suspensions were mixed, then filtered into a clean 96-well collection plate using a vacuum and transferred (100 μL) to plastic HPLC vials for analysis.
as §1, with “(50” for “(200”, “150” for “400”

[1] = 1 mg/kg intranasal dose, 10 min
[2] = 1 mg/kg intranasal dose, 30 min
[3] = 1 mg/kg intranasal dose, 60 min
[4] = 5 mg/kg intranasal dose, 10 min
[5] = 5 mg/kg intranasal dose, 60 min

With `CN[C@@H](C)C/C=C/c1cncc(OC(C)C)c1` [Compound C, (2S)-(4E)-N-methyl-5-(3-(5-isopropoxypyridin)yl)-4-penten-2-amine] the “Brain-to-Plasma Ratio” value [1] was 1.55 and 1.68, the “Mean Ratio (brain-to-plasma)” value [1] was 1.97 and the “Brain-to-Plasma Ratio” value [2] was 1.69 and 2.36. For the same compound, the “Mean Ratio (brain-to-plasma)” value [2] was 2.27, the “Plasma Conc.” value [2] was 118 ng/mL and 86.8 ng/mL and the “Brain-to-Plasma Ratio” value [3] was 1.86 and 2.57. For the same compound, the “Mean Ratio (brain-to-plasma)” value [3] was 2.12, the “Plasma Conc.” value [3] was 66 ng/mL and 37.8 ng/mL and the “Brain-to-Plasma Ratio” value [4] was 0.99. The “Plasma Conc.” value [4] was 1570 ng/mL and 1700 ng/mL, the “Brain-to-Plasma Ratio” value (5 mg/kg intranasal dose, 30 min) was 3.58 and 2.11 and the “Brain-to-Plasma Ratio” value [5] was 3.26 and 1.95. The “Mean Ratio (brain-to-plasma)” value [5] was 2.41, the “Plasma Conc.” value [5] was 175 ng/mL and 119 ng/mL and the “Brain-to-Plasma Ratio” value (5 mg/kg oral dose, 30 min) was 2.65 and 1.67. For the same compound, the “Mean Ratio (brain-to-plasma)” value (5 mg/kg oral dose, 30 min) was 2.21, the “Brain-to-Plasma Ratio” value (5 mg/kg oral dose, 60 min) was 3.95 and the “Mean Ratio (brain-to-plasma)” value (5 mg/kg oral dose, 60 min) was 3.55. For the same compound, the “5 mg/kg IN/5 mg/kg PO, Brain” value (30 min) was 1.0, the “5 mg/kg IN/5 mg/kg PO, Plasma” value (30 min) was 0.7 and the “5 mg/kg IN/5 mg/kg PO, Brain” value (60 min) was 0.7. The “5 mg/kg IN/5 mg/kg PO, Plasma” value (60 min) was 1.0, the concentration at 10 min (rat, brain homogenate, oral, 5 mg/kg, 5 mg/kg oral dose, 10 min, read-out: Brain Conc.) was 45.4 ng/mL and the concentration at 30 min (rat, brain homogenate, oral, 5 mg/kg, 5 mg/kg oral dose, 30 min, read-out: Brain Conc.) was 205 ng/mL. It also gave a concentration at 10 min (rat, brain homogenate, other: intranasal, 1 mg/kg, 1 mg/kg intranasal dose, 10 min, read-out: Brain Conc.) of 47.6 ng/mL, a concentration at 30 min (rat, brain homogenate, other: intranasal, 1 mg/kg, 1 mg/kg intranasal dose, 30 min, read-out: Brain Conc.) of 43.7 ng/mL and a concentration at 60 min (rat, brain homogenate, other: intranasal, 1 mg/kg, 1 mg/kg intranasal dose, 60 min, read-out: Brain Conc.) of 17.7 ng/mL. It also gave a concentration at 10 min (rat, brain homogenate, other: intranasal, 5 mg/kg, 5 mg/kg intranasal dose, 10 min, read-out: Brain Conc.) of 269 ng/mL, a Kp at […] (rat, brain, inhaled or intranasal, 1 mg/kg, 1 mg/kg intranasal dose, 10 min, read-out: Mean Ratio (brain-to-plasma)) of 2 and a Kp at 0.5 h (rat, brain, inhaled or intranasal, 1 mg/kg, 1 mg/kg intranasal dose, 30 min, read-out: Mean Ratio (brain-to-plasma)) of 2.8. The Kp at 1 h (rat, brain, inhaled or intranasal, 1 mg/kg, 1 mg/kg intranasal dose, 60 min, read-out: Mean Ratio (brain-to-plasma)) was 2.4, the Kp at […] (rat, brain, inhaled or intranasal, 5 mg/kg, 5 mg/kg intranasal dose, 10 min, read-out: Mean Ratio (brain-to-plasma)) was 1.2 and the Kp at 0.5 h (rat, brain, inhaled or intranasal, 5 mg/kg, 5 mg/kg intranasal dose, 30 min, read-out: Mean Ratio (brain-to-plasma)) was 2.8. It also gave a Kp at 1 h (rat, brain, inhaled or intranasal, 5 mg/kg, 5 mg/kg intranasal dose, 60 min, read-out: Mean Ratio (brain-to-plasma)) of 2.4, a concentration at 10 min (rat, brain, oral, 5 mg/kg, 5 mg/kg oral dose, 10 min, read-out: Brain Conc.) of 227 ng/g and a concentration at 30 min (rat, brain, oral, 5 mg/kg, 5 mg/kg oral dose, 30 min, read-out: Brain Conc.) of 1020 ng/g. It also gave a concentration at 10 min (rat, brain, other: intranasal, 1 mg/kg, 1 mg/kg intranasal dose, 10 min, read-out: Brain Conc.) of 238 ng/g, a concentration at 30 min (rat, brain, other: intranasal, 1 mg/kg, 1 mg/kg intranasal dose, 30 min, read-out: Brain Conc.) of 219 ng/g and a concentration at 60 min (rat, brain, other: intranasal, 1 mg/kg, 1 mg/kg intranasal dose, 60 min, read-out: Brain Conc.) of 89 ng/g. The concentration at 10 min (rat, brain, other: intranasal, 1 mg/kg, intranasal 1 mg/kg, 10 minutes, read-out: Average brain levels) was 136 ng/g, the concentration at 30 min (rat, brain, other: intranasal, 1 mg/kg, intranasal 1 mg/kg, 30 minutes, read-out: Average brain levels) was 95 ng/g and the concentration at 60 min (rat, brain, other: intranasal, 1 mg/kg, intranasal 1 mg/kg, 60 minutes, read-out: Average brain levels) was 50 ng/g. For the same compound, the concentration at 10 min (rat, brain, other: intranasal, 5 mg/kg, 5 mg/kg intranasal dose, 10 min, read-out: Brain Conc.) was 1340 ng/g, the concentration at 10 min (rat, brain, other: intranasal, 5 mg/kg, intranasal 5 mg/kg, 10 minutes, read-out: Average brain levels) was 1750 ng/g and the concentration at 30 min (rat, brain, other: intranasal, 5 mg/kg, intranasal 5 mg/kg, 30 minutes, read-out: Average brain levels) was 1160 ng/g. For the same compound, the concentration at 60 min (rat, brain, other: intranasal, 5 mg/kg, intranasal 5 mg/kg, 60 minutes, read-out: Average brain levels) was 382 ng/g, the concentration at 10 min (rat, brain, po, 5 mg/kg, oral gavage 5 mg/kg, 10 minutes, read-out: Average brain levels) was 225 ng/g and the concentration at 30 min (rat, brain, po, 5 mg/kg, oral gavage 5 mg/kg, 30 minutes, read-out: Average brain levels) was 1170 ng/g. For the same compound, the concentration at 60 min (rat, brain, po, 5 mg/kg, oral gavage 5 mg/kg, 60 minutes, read-out: Average brain levels) was 571 ng/g, the Kp at […] (rat, brain/plasma, inhaled or intranasal, 1 mg/kg, 1 mg/kg intranasal dose, 10 min, read-out: Brain-to-Plasma Ratio) was 2.7 and the Kp at 0.5 h (rat, brain/plasma, inhaled or intranasal, 1 mg/kg, 1 mg/kg intranasal dose, 30 min, read-out: Brain-to-Plasma Ratio) was 2.78. For the same compound, the Kp at 1 h (rat, brain/plasma, inhaled or intranasal, 1 mg/kg, 1 mg/kg intranasal dose, 60 min, read-out: Brain-to-Plasma Ratio) was 1.92, the Kp at […] (rat, brain/plasma, inhaled or intranasal, 5 mg/kg, 5 mg/kg intranasal dose, 10 min, read-out: Brain-to-Plasma Ratio) was 1.42 and the Kp at 0.5 h (rat, brain/plasma, inhaled or intranasal, 5 mg/kg, 5 mg/kg intranasal dose, 30 min, read-out: Brain-to-Plasma Ratio) was 2.63. For the same compound, the Kp at 1 h (rat, brain/plasma, inhaled or intranasal, 5 mg/kg, 5 mg/kg intranasal dose, 60 min, read-out: Brain-to-Plasma Ratio) was 2.03, the Kp at […] (rat, brain/plasma, po, 5 mg/kg, 5 mg/kg oral dose, 10 min, read-out: Mean Ratio (brain-to-plasma)) was 0.8 and the Kp at 0.5 h (rat, brain/plasma, po, 5 mg/kg, 5 mg/kg oral dose, 30 min, read-out: Brain-to-Plasma Ratio) was 2.31. The Kp at 0.5 h (rat, brain/plasma, po, 5 mg/kg, 5 mg/kg oral dose, 30 min, read-out: Mean Ratio (brain-to-plasma)) was 2.2, the Kp at 1 h (rat, brain/plasma, po, 5 mg/kg, 5 mg/kg oral dose, 60 min, read-out: Brain-to-Plasma Ratio) was 3.89 and the Kp at 1 h (rat, brain/plasma, po, 5 mg/kg, 5 mg/kg oral dose, 60 min, read-out: Mean Ratio (brain-to-plasma)) was 3.5. It also gave a Kp at […] (rat, brain/plasma, po, 5 mg/kg, 10 min, read-out: 5 mg/kg IN/5 mg/kg PO, Ratio (brain to plasma)) of 1.5, a Kp at 0.5 h (rat, brain/plasma, po, 5 mg/kg, 30 min, read-out: 5 mg/kg IN/5 mg/kg PO, Ratio (brain to plasma)) of 1.3 and a Kp at 1 h (rat, brain/plasma, po, 5 mg/kg, 60 min, read-out: 5 mg/kg IN/5 mg/kg PO, Ratio (brain to plasma)) of 0.7. For the same compound, the concentration at 30 min (rat, plasma, other: intranasal, 1 mg/kg, 1 mg/kg intranasal dose, 30 min, read-out: Plasma Conc.) was 78.7 ng/mL, the concentration at 60 min (rat, plasma, other: intranasal, 1 mg/kg, 1 mg/kg intranasal dose, 60 min, read-out: Plasma Conc.) was 46 ng/mL and the concentration at 10 min (rat, plasma, other: intranasal, 1 mg/kg, intranasal 1 mg/kg, 10 minutes, read-out: Average plasma levels) was 250 ng/mL. For the same compound, the concentration at 30 min (rat, plasma, other: intranasal, 1 mg/kg, intranasal 1 mg/kg, 30 minutes, read-out: Average plasma levels) was 208 ng/mL, the concentration at 60 min (rat, plasma, other: intranasal, 1 mg/kg, intranasal 1 mg/kg, 60 minutes, read-out: Average plasma levels) was 103 ng/mL and the concentration at 10 min (rat, plasma, other: intranasal, 5 mg/kg, 5 mg/kg intranasal dose, 10 min, read-out: Plasma Conc.) was 1120 ng/mL. For the same compound, the concentration at 60 min (rat, plasma, other: intranasal, 5 mg/kg, 5 mg/kg intranasal dose, 60 min, read-out: Plasma Conc.) was 170 ng/mL, the concentration at 10 min (rat, plasma, other: intranasal, 5 mg/kg, intranasal 5 mg/kg, 10 minutes, read-out: Average plasma levels) was 1460 ng/mL and the concentration at 30 min (rat, plasma, other: intranasal, 5 mg/kg, intranasal 5 mg/kg, 30 minutes, read-out: Average plasma levels) was 421 ng/mL. For the same compound, the concentration at 60 min (rat, plasma, other: intranasal, 5 mg/kg, intranasal 5 mg/kg, 60 minutes, read-out: Average plasma levels) was 155 ng/mL, the concentration at 10 min (rat, plasma, po, 5 mg/kg, oral gavage 5 mg/kg, 10 minutes, read-out: Average plasma levels) was 312 ng/mL and the concentration at 30 min (rat, plasma, po, 5 mg/kg, oral gavage 5 mg/kg, 30 minutes, read-out: Average plasma levels) was 578 ng/mL. The concentration at 60 min (rat, plasma, po, 5 mg/kg, oral gavage 5 mg/kg, 60 minutes, read-out: Average plasma levels) was 155 ng/mL and the “Intranasal absorption into the brain and bloodstream compared with oral administration” value (rat, in vivo, po) was “much faster”.

From US20100028447A1, “Intranasal, Buccal, And Sublingual Administration Of Metanicotine Analogs” (TARGACEPT, INC., priority 2007, published 2010)
